Experimental data taken from patent publication US20140081017A1, “Histone Deacetylase Inhibitors for Enhancing Activity of Antifungal Agents” (METHYLGENE INC., priority 2012, published 2014).
Values after ≈ are worked out from the molar mass of the structure shown. Like-named read-outs stand apart in the source and are kept apart here.

Legend:
C. glabrata = experiment: Checkerboard FIC assay in combination with fluconazole (MIC alone and in combination, FICI); format: cell-based, Candida glabrata; conditions: for FICI of combination resulting in fluconazole MIC of: 2 ug/mL / FICI of combination resulting in fluconazole MIC of: 4 ug/mL / FICI of combination resulting in fluconazole MIC of: 8 ug/mL: FICI calculated using a fluconazole MIC of 16 μg/mL; for FICI of combination resulting in fluconazole MIC of: 2 ug/mL (value in parenthesis) / FICI of combination resulting in fluconazole MIC of: 4 ug/mL (value in parenthesis) / FICI of combination resulting in fluconazole MIC of: 8 ug/mL (value in parenthesis): FICI using a fluconazole MIC of 128 μg/mL; for MIC: Nakaseomyces glabratus; for Concentration of Methylgene compound to synergize fluconazole MIC to 2 ug/mL / Concentration of Methylgene compound to synergize fluconazole MIC to 4 ug/mL / Concentration of Methylgene compound to synergize fluconazole MIC to 8 ug/mL: in combination with fluconazole; for Concentration of Methylgene compound to synergize fluconazole MIC to 2 ug/mL: fluconazole MIC lowered to 2 ug/mL; for Concentration of Methylgene compound to synergize fluconazole MIC to 4 ug/mL: fluconazole MIC lowered to 4 ug/mL; for Concentration of Methylgene compound to synergize fluconazole MIC to 8 ug/mL: fluconazole MIC lowered to 8 ug/mL; for Multiple of compound MIC to synergize fluconazole MIC to 2 ug/mL / Multiple of compound MIC to synergize fluconazole MIC to 4 ug/mL / Multiple of compound MIC to synergize fluconazole MIC to 8 ug/mL: concentration in combination as multiple of the compound's MIC alone; for Multiple of compound MIC to synergize fluconazole MIC to 2 ug/mL: fluconazole MIC 2 ug/mL; for Multiple of compound MIC to synergize fluconazole MIC to 4 ug/mL: fluconazole MIC 4 ug/mL; for Multiple of compound MIC to synergize fluconazole MIC to 8 ug/mL: fluconazole MIC 8 ug/mL
Procedure: The ability of the compounds to synergize with azoles against C. glabrata was evaluated by the checkerboard assay, a common laboratory method used to evaluate synergy, antagonism, and indifference using fractional inhibitory concentrations (FICs) and FIC indices (FICI).
The test compounds were supplied as a powder and dissolved in dimethylsulfoxide (DMSO) on the day of assay. Stock solutions were prepared at 640 ug/mL. Fluconazole was dissolved in deionized water to a stock concentration of 320 ug/mL. All test articles were in solution under these conditions.
(§1) The test organisms and reference isolates were streaked for isolation on Sabouraud agar medium (yeasts) or potato dextrose agar (fungi). Colonies were picked by swab from the medium and resuspended in the appropriate broth containing cryoprotectant. The suspensions were aliquoted into cryogenic vials and maintained at −80° C.
(§2) Prior to testing, the yeast isolates were streaked from the frozen vials onto Sabouraud dextrose agar. The plates were incubated overnight at 35° C. The fungal isolate was grown on potato dextrose agar slants and was incubated for 7-10 days at room temperature.
(§3) Both yeast and fungal isolates were tested in RPMI medium buffered with 0.165 M MOPS (3-(N-morpholino)propanesulfonic acid). The pH of the medium was adjusted to 7.0 with 1 N NaOH. The medium was sterile filtered using a 0.2 um PES (polyethersulfone) filter and stored at 4° C. until used.
FIC values were determined using a broth microdilution method (CLSI; 1, 3). To prepare the test plates, automated liquid handlers (Multidrop 384, Labsystems, Helsinki, Finland; Biomek 2000 and Biomek FX, Beckman Coulter, Fullerton Calif.) were used to conduct serial dilutions and liquid transfers.
The wells of standard 96-well microdilution plates (Costar 3795) were filled with 150 uL of DMSO in columns 2-12. Three hundred microliters of each test compound was added to each well in Column 1 of the plates. The Biomek 2000 was used to make eleven 2-fold serial dilutions in each of these “test compound mother” plates. The wells of the “fluconazole mother plates” were filled with 150 uL of sterile water in rows B-H. Row A of these plates was filled with 300 uL of the fluconazole stock solution. Serial 2-fold dilutions were then prepared from top to bottom by hand, using a multichannel pipette in rows B-G. The “daughter plates” were loaded with 180 uL of RPMI using the Multidrop 384. The Biomek FX was used to transfer 5 uL of compound solution from each well of a fluconazole mother plate to the corresponding well in all of the daughter plates in a single step. Then the Biomek FX was used to transfer 5 uL of compound solution from each well of a test compound mother plate to the corresponding well of the corresponding test compound daughter plate (already containing fluconazole at the appropriate concentrations) in a single step. Row H and Column 12 each contained serial dilutions of the test agent and fluconazole alone, respectively, for determination of the MIC.
Standardized inoculum of each organism was prepared per CLSI methods (CLSI; 1, 3). For yeast isolates, colonies were picked from the primary plate and a suspension was prepared in 0.85% saline to equal a 0.5 McFarland turbidity standard. For the fungal isolate, 1 mL of 0.85% saline was dispensed onto a potato dextrose agar slant onto which the isolate had been inoculated 7-10 days previously. Using a swab, a suspension of the fungus was made. After a short time to allow the heavy particles to settle out, a small quantity of the supernatant was dispensed into 0.85% saline and the suspension was adjusted to equal a 0.5 McFarland turbidity standard. Both yeast and fungal isolates were diluted 1:100 in RPMI and then transferred to compartments of sterile reservoirs divided by length (Beckman Coulter). The Biomek 2000 was used to inoculate the plates. […]

Candida glabrata = experiment: Minimal Inhibitory Concentration (MIC) assay, broth microdilution per CLSI; format: cell-based; conditions: Nakaseomyces glabratus, read-out: Minimum Inhibitory Concentrations against Yeast Isolates, Candida glabrata;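 note: two read times 24 hr and 48 hr of incubation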
Procedure: (§4) The in vitro activities of the inventive compounds (compound(s) herein) against fungi and/or yeasts were determined with isolates Candida albicans, Candida glabrata and Candida parapsilosis. The comparator compounds included fluconazole, caspofungin and amphotericin B.
(§5) The compounds were supplied as a powder, and were dissolved in dimethylsulfoxide (DMSO) the day of assay. Stock solutions were prepared at 10 mg/mL and diluted to a starting stock concentration of 2.56 mg/mL. Amphotericin B was dissolved in DMSO to a stock concentration of 2.56 mg/mL. Fluconazole was dissolved in deionized water to a stock concentration of 2.56 mg/mL. Caspofungin was received as a stock solution of 3.2 mg/mL in DMSO and was diluted to a starting stock concentration of 2.56 mg/mL.
as §1, §2, §3
(§6) The MIC assay method followed the procedure described by the Clinical and Laboratory Standards Institute (CLSI; 1, 2, 3) and employed automated liquid handlers to conduct serial dilutions and liquid transfers. Automated liquid handlers included the Multidrop 384 (Labsystems, Helsinki, Finland), Biomek 2000 and Biomek FX (Beckman Coulter, Fullerton Calif.). The wells in columns 2-12 in standard 96-well microdilution plates (Costar 3795) were filled with 150 ul of 100% DMSO. These would become the ‘mother plates’ from which ‘daughter’ or test plates would be prepared. The compounds (300 uL at 40× the desired top concentration in the test plates) were dispensed into the appropriate well in Column 1 of the mother plates. The Biomek 2000 was used to make serial 1:1 dilutions through Column 11 in the “mother plate”. The wells of Column 12 contained no compounds and were the organism growth control wells.
(§7) The daughter plates were loaded with 185 uL per well of RPMI described above using the Multidrop 384. The daughter plates were prepared using the Biomek FX which transferred 5 μL of the compound solution from each well of a mother plate to the corresponding well of the daughter plate in a single step.
(§8) Standardized inoculum of each organism was prepared per CLSI methods. For yeast isolates, colonies were picked from the streak plate and a suspension was prepared in 0.85% saline. For the fungal isolate, 1 mL of 0.85% saline was dispensed onto the potato dextrose agar slant that had been inoculated 7-10 days previously. Using a swab, a suspension of the fungus was made. After a short time to allow the heavy particles to settle out, a small quantity of the supernatant was dispensed into 0.85% saline and the suspension adjusted to equal a 0.5 McFarland turbidity standard. Both yeast and fungal isolates were diluted 1:100 in RPMI and then transferred to compartments of sterile reservoirs divided by length (Beckman Coulter). The Biomek 2000 was used to inoculate the plates. Daughter plates were placed on the Biomek 2000 work surface reversed so that inoculation took place from low to high compound concentration. The Biomek 2000 delivered 10 μL of standardized inoculum into each well. Thus, the wells of the daughter plates ultimately contained 185 uL of RPMI, 5 uL of the compound solution, and 10 uL of inoculum. […]

Candida parapsilosis = experiment: as above; format: cell-based; conditions: Lodderomyces parapsilosis, read-out: Minimum Inhibitory Concentrations against Yeast Isolates, Candida parapsilosis;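 note: two read times 24 hr and 48 hr of incubation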
Procedure: as §4, §5, §1, §2, §3, §6, §7, §8

Candida albicans = experiment: as above; format: cell-based; conditions: Candida albicans, read-out: Minimum Inhibitory Concentrations against Yeast Isolates, Candida albicans;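 note: two read times 24 hr and 48 hr of incubation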
Procedure: as §4, §5, §1, §2, §3, §6, §7, §8

[1] = MIC of the example compound alone against C. glabrata in the checkerboard assay, approximately 48 hr, read-out: Methylgene MIC
[2] = test compound alone, C. glabrata, approx. 48 hr at 35° C., read-out: Compound MIC
[3] = 24 hr reading (first value of cell 24 hr/48 hr)
[4] = 48 hr reading (second value of cell 24 hr/48 hr)

Row | SMILES | FICI of combination resulting in fluconazole MIC of: 2 ug/mL (C. glabrata; C. glabrata) | FICI of combination resulting in fluconazole MIC of: 4 ug/mL (C. glabrata; C. glabrata) | FICI of combination resulting in fluconazole MIC of: 8 ug/mL (C. glabrata; C. glabrata) | FICI of combination resulting in fluconazole MIC of: 2 ug/mL (value in parenthesis) (C. glabrata; C. glabrata) | FICI of combination resulting in fluconazole MIC of: 4 ug/mL (value in parenthesis) (C. glabrata; C. glabrata) | FICI of combination resulting in fluconazole MIC of: 8 ug/mL (value in parenthesis) (C. glabrata; C. glabrata) | MIC (C. glabrata; [1]) | MIC (C. glabrata; [2]) | Concentration of Methylgene compound to synergize fluconazole MIC to 2 ug/mL (C. glabrata; C. glabrata) | Concentration of Methylgene compound to synergize fluconazole MIC to 4 ug/mL (C. glabrata; C. glabrata) | Concentration of Methylgene compound to synergize fluconazole MIC to 8 ug/mL (C. glabrata; C. glabrata) | MIC (Candida glabrata; [3]) | MIC (Candida glabrata; [4]) | MIC (Candida parapsilosis; [3]) | MIC (Candida parapsilosis; [4]) | MIC (Candida albicans; [3]) | MIC (Candida albicans; [4]) | Multiple of compound MIC to synergize fluconazole MIC to 2 ug/mL (C. glabrata) | Multiple of compound MIC to synergize fluconazole MIC to 4 ug/mL (C. glabrata) | Multiple of compound MIC to synergize fluconazole MIC to 8 ug/mL (C. glabrata)
1 | O=C(Cc1ccc(CCCCc2ccc(CC(=O)NO)cc2)cc1)NO [Example 7, 2,2′-(4,4′-(butane-1,4-diyl)bis(4,1-phenylene))bis(N-hydroxyacetamide)] | > 0.125 | > 0.188 | > 0.281 | > 0.078 | > 0.094 | > 0.094 | > 4 µg/mL | > 4 µg/mL | 0.5 µg/mL | 0.5 µg/mL | 0.25 µg/mL | 0.5 µg/mL (≈ 1.4 µM) | > 8 µg/mL | > 8 µg/mL | > 8 µg/mL | > 8 µg/mL | > 8 µg/mL |  |  | 
2 | O=C(Cc1ccc(CCCCC2CCCCC2)cc1)NO [Example 8, 2-(4-(4-cyclohexylbutyl)phenyl)-N-hydroxyacetamide] | 0.543 | 0.605 | 0.730 | 0.496 | 0.511 | 0.543 | 0.25 µg/mL | 0.25 µg/mL | 0.12 µg/mL | 0.12 µg/mL | 0.12 µg/mL | 0.12 µg/mL (≈ 0.415 µM) | 0.12 µg/mL (≈ 0.415 µM) | 0.12 µg/mL (≈ 0.415 µM) | 0.25 µg/mL (≈ 0.864 µM) | 0.25 µg/mL (≈ 0.864 µM) | 0.25 µg/mL (≈ 0.864 µM) | (½x) | (½x) | (½x)
3 | COc1ccc(CCCCc2ccc(CC(=O)NO)cc2)cc1 [Example 9, N-hydroxy-2-(4-(4-(4-methoxyphenyl)butyl)phenyl)acetamide] | 0.625 | 0.490 | 0.620 | 0.516 | 0.271 | 0.183 | 0.5 µg/mL | 0.5 µg/mL | 0.25 µg/mL | 0.12 µg/mL | 0.06 µg/mL | 0.5 µg/mL (≈ 1.6 µM) | > 4 µg/mL | 1 µg/mL (≈ 3.19 µM) | 1 µg/mL (≈ 3.19 µM) | 1 µg/mL (≈ 3.19 µM) | 1 µg/mL (≈ 3.19 µM) | (½x) | (¼x) | (⅛x)
4 | COCCOCCOCCOCCOCCOc1ccc(CCCCc2ccc(CC(=O)NO)cc2)cc1 [Example 10, 2-(4-(4-(4-(2,5,8,11,14-pentaoxahexadecan-16-yloxy)phenyl)butyl)phenyl)-N-hydroxyacetamide] | 0.375 | 0.500 | 0.625 | 0.266 | 0.281 | 0.188 | 2 µg/mL | 2 µg/mL | 0.5 µg/mL | 0.5 µg/mL | 0.25 µg/mL | > 64 µg/mL | > 64 µg/mL | > 64 µg/mL | > 64 µg/mL | > 64 µg/mL | > 64 µg/mL | (¼x) | (¼x) | (⅛x)
